The values that follow come from US5569655A, “Substituted heterocyclylisoquinolinium salts and compositions and method of use thereof” (Sterling Winthrop Inc., priority 1994, dated 1996).

In assay [1] the target is PCP recognition sites (PCP receptor). In words: [3H]TCP radioreceptor assay (binding to PCP recognition sites). Details: species or system rat (male Sprague-Dawley. To be noted: rat whole brain membranes, approx. 1 nM [3H]TCP; mean of at least two determinations. How it is done:
[^3 H]TCP Radioreceptor Assay
[^3 H]TCP binding to PCP recognition sites was performed as described by Vignon et al. Brain Research 1983, 280, 194-197. Male Sprague-Dawley rats were sacrificed by decapitation, and whole brains were homogenized in 10 volumes (wt/vol) of cold Tris-HCl buffer (50 mM, pH 7.7) using a Brinkmann Polytron (setting 6, 30 sec). The homogenate was centrifuged at 40,000×g for 10 min at 4° C. The supernatant was decanted, and the homogenization and centrifugation steps were repeated twice as described above. Following this, the pellet was resuspended in Tris-HCl (5 mM, pH 7.7) at a tissue concentration of 0.5-0.75 g/ml, and one ml aliquots were frozen at -70° C. until use. The binding characteristics for PCP recognition sites were not altered by the freezing of membrane suspensions.
On the day of the assay, membrane aliquots were thawed, resuspended in fresh 5 mM Tris-HCl buffer at a tissue concentration of 1 mg/ml, and stored on ice until use. Each assay tube contained 100 μl of [^3 H]TCP at a final concentration of approximately 1 nM, 100 μl of various concentrations of the compounds of interest, 500 μl of the tissue suspension and 300 μl of buffer to a final assay volume of 1 ml and a final protein concentration of 0.5 mg/tube. Non-specific binding was defined by addition of a final concentration of 100 μM PCP to blank tubes. All tubes were incubated at room temperature for 25 min before termination of the reaction by rapid filtration over Whatman GF/B glass fiber filters that had been presoaked in a solution of 0.5% polyethylenimine for at least 1 hr prior to use. Filters were washed with three 4 ml volumes of cold Tris buffer. Following addition of scintillation cocktail, the amount of bound radioactivity was determined by liquid scintillation spectrometry using a Beckman LS 5000TA liquid scintillation counter with an efficiency for tritium of approximately 55%. Inhibition constants (Ki values) were calculated using the EBDA/LIGAND program (McPherson, J. Pharmacol. Meth. 1985, 14, 213-228), purchased from Elsevier/Biosoft, Inc. The results are reported as Ki values (in nM) which are expressed as the mean of at least two separate determinations, or as a percent (%) inhibition of binding at 10 μM.
(§1) Table 4 summarizes the results obtained from the testing of representative compounds of the invention in the [^3 H]TCP radioreceptor assay as well as in the antagonism of NMDA-induced neurotoxicity in cultured neurons.

Assay [2] relates to NMDA-induced neurotoxicity in cultured cortical neurons. In words: Antagonism of NMDA-induced neurotoxicity in cultured neurons. In kind it is cell-based, mouse (Swiss-Webster). To be noted: Mus musculus, Cortical neurone, 500 μM NMDA for 30 minutes; LDH activity after 24 hours. How it is done:
Antagonism of NMDA-induced Neurotoxicity in Cultured Neurons
Preparation of cultured cortical neurons
Pregnant, Swiss-Webster mice were obtained from Taconic Farms (Germantown, N.Y.) and sacrificed 16 days post conception. Fetuses were removed and placed in a sterile dish containing Hank's balanced salt solution (HBSS), pH 7.4. Brain cortices were dissected, meninges were removed, the tissue was minced and placed into a solution of HBSS containing 0.25% (w/v) trypsin at 37° C. for 15 minutes. Tissue was then triturated with a sterile pasteur pipet, diluted with minimal essential media (Gibco 330-1430), pH 7.4, supplemented with 10% horse serum, 10% fetal calf serum, 2 mM 1-glutamine, 21 mM d-glucose, 2.2 g/L sodium bicarbonate, 1000 U/ml penicillin, and 1,000 μg/ml streptomycin. Cells were plated onto Falcon primaria 96 well plates at a final density of 50,000 cells/well and incubated at 37° C. in the presence of 5% (v/v) carbon dioxide. After 5 days, plating media was replaced with maintenance media containing minimal essential media (Gibco 330-1430), pH 7.4, supplemented with 10% horse serum, 10% 1-glutamine, 21 mM D-glucose, 2.2 g/l sodium bicarbonate,1,000 U/ml penicillin, 1,000 μg/ml streptomycin, and 10 μM cytosine arabinoside. On days 7 and 10, media was replaced with maintenance media as above lacking the cytosine arabinoside. Experiments were conducted on day 13.
Neuroprotection Assessment
Day 13 cultured cortical neurons were washed twice with minimal essential media, pH 7.4 and then exposed for 30 minutes to 500 μM N-methyl-D-aspartic acid (NMDA) with or without varying concentrations of test agents. […] MK-801 and test agents were prepared in minimal essential media supplemented with 21 mM d-glucose and 2.2 g/L sodium bicarbonate (MEM). After 30 minutes, media was replaced with MEM alone. Exposure of neurons to test agents was limited to the NMDA treatment period. Twenty-four hours after removal of NMDA, an aliquot of media from each well was removed for assessment of cell injury by determining lactate dehydrogenase (LDH) activity by the method of Wroblewski and LaDue Proc. Soc. Exp. Biol. Med. 1955, 90, 210-213. The results are expressed as an IC50 (in nM) value (concentration causing 50% inhibition) for the antagonism of NMDA-induced neurotoxicity.
as §1

The compound `Cn1cc[n+]2c1C1c3ccccc3C2CC1(c1ccoc1)c1ccoc1` (centres unmarked) [13(b), 11,11-di(3-furyl)-5,10-ethano-5,10-dihydro-1-methylimidazo[1,2-b]isoquinolin-4-ium chloride] gave an inhibition constant Ki in assay [1] of 2.9 nM. Besides, 257 nM corresponded to half-maximal inhibition in assay [2] (IC50).
For `CCOC1(OCC)C2c3ccccc3C([n+]3ccsc32)C1(C)C` (centres unmarked) [Example 1i, 11,11-diethoxy-12,12-dimethyl-5,10-ethano-5,10-dihydrothiazolo[3,2-b]isoquinolinium chloride 3/5 hydrate] the same measures were 6.1 nM and 173 nM.
In assay [1], `c1ccc2c(c1)C1CC(c3ccn[nH]3)(c3ccn[nH]3)C2c2scc[n+]21` (centres unmarked) [18(h), 11,11-di-(pyrazol-5-yl)-5,10-ethano-5,10-dihydrothiazolo[3,2-b]isoquinolinium chloride] returned a Ki of 21 nM. In assay [2], this compound registered an IC50 of 480 nM.
Turning to `Cc1c[n+]2c(s1)C1c3ccccc3C2CC1(c1ccoc1)c1ccoc1` (centres unmarked) [16(E), 11,11-di(3-furyl)-5,10-ethano-5,10-dihydro-2-methylthiazolo[3,2-b]isoquinolinium chloride], affinity in assay [1] was put at a Ki of 11 nM. The compound also yielded a 50% inhibitory concentration (IC50) in assay [2] of 270 nM.
The like results for `c1ccc2c(c1)C1CC(c3ccoc3)(c3ccoc3)C2c2scc[n+]21` (single isomer, unassigned; (-)) [5(c), (-)-11,11-di(3-furyl)-5,10-ethano-5,10-dihydrothiazolo[3,2-b]isoquinolinium chloride] were, in that order, 5 nM and 32 nM.
For `Oc1cccc2c1C1c3scc[n+]3C2CC1(c1ccoc1)c1ccoc1` (centres unmarked) [206(f), 11,11-di(3-furyl)-9-hydroxy-5,10-ethano-5,10-dihydrothiazolo[3,2-b]isoquinolinium chloride] the same measures were 1.87 nM and 20.9 nM.
Turning to `CCOC1(OCC)C2c3ccccc3C([n+]3ccn(C)c32)C1(C)C` (centres unmarked) [7(F), 11,11-diethoxy-12,12-dimethyl-5,10-ethano-5,10-dihydro-1-methylimidazo[1,2-b]isoquinolin-4-ium chloride], affinity in assay [1] was put at a Ki of 8.2 nM. The same compound came in with an IC50 in assay [2] of 53 nM.

The term Ki denotes a dissociation constant, usually derived from enzyme kinetics or from competition with a known ligand. The term IC50 denotes the concentration that inhibits the measured activity by half. The low end stands for inhibition by little substance, the high end for a need for much substance.
